Among the test systems are EKVX; NCI-H522; NCI-H23; RPMI-8226; SR; HOP-92; 786-0; SNB-19; NCI-H460; MOLT-4; LOX IMVI; HL-60; HCT-15; Malme-3M; OVCAR-8; SK-MEL-28.
Holding throughout (assay): NCI-60 cell line screen, 48 h

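Assay format: 96-well plates, 48-hour exposure. GI50 marks 50% less growth.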 Calls of active or inactive are those of the source. Cut-off read from the data, not from the text of the source: active = GI50 up to about 1.1 µM and inactive = higher.

On to `O=C1[C@@H]2C3c4ccccc4C([C@@H]2C(=O)N1c1ccccc1)S3(=O)=O`, for which the GI50 with EKVX is > 100 µM (inactive); with NCI-H522 it was 74.3 µM (inactive); in the assay on NCI-H23 it was > 100 µM (inactive); in the assay on RPMI-8226, > 100 µM (inactive); in the assay on SR, > 100 µM (inactive); in the assay with HOP-92, > 100 µM (inactive). Also, the GI50 in the assay on 786-0 is 55.8 µM (inactive); with SNB-19, 48.8 µM (inactive); in the assay on NCI-H460 it was 31.1 µM (inactive); with MOLT-4, > 100 µM (inactive); with LOX IMVI it was 47.2 µM (inactive); with HL-60 it was > 100 µM (inactive). Moreover, the GI50 is over 100 µM with HCT-15, > 100 µM (inactive) in the assay with Malme-3M and > 100 µM (inactive) with OVCAR-8.
On to `CN(C)CCNC(=O)c1cc2ccccc2c2nc3ccccc3nc12`, for which the GI50 with EKVX was 2.06 µM (inactive); in the assay on NCI-H522, 1.89 µM (inactive); with NCI-H23, 1.17 µM (inactive); with RPMI-8226, 0.522 µM (active); in the assay on SR it was 0.163 µM (active); in the assay with 786-0 it was 2.43 µM (inactive). For the same compound, the GI50 with SNB-19 was 1.43 µM (inactive); in the assay on MOLT-4, 0.153 µM (active); in the assay with LOX IMVI, 0.413 µM (active); in the assay with HCT-15, 0.522 µM; in the assay with SK-MEL-28 it was 1.56 µM (inactive); with Malme-3M, 0.818 µM (active). Further, the GI50 with OVCAR-8 is 0.771 µM (active).
`CC[C@H]1CC(=O)c2c(cc3c(c2O)C(=O)c2ccccc2C3=O)[C@@]1(C#N)C(=O)OC(C)(C)C`: the GI50 was 4.94 µM (inactive) in the assay with EKVX; 2.29 µM (inactive) in the assay on NCI-H522; 3.24 µM (inactive) in the assay on NCI-H23; 3.33 µM (inactive) with RPMI-8226; 3.66 µM (inactive) in the assay on SR; 9.31 µM (inactive) in the assay with HOP-92. Besides, the GI50 in the assay with 786-0 is 4.15 µM (inactive); with SNB-19 it was 3.79 µM (inactive); in the assay on NCI-H460, 2.7 µM (inactive); in the assay on MOLT-4 it was 2.33 µM (inactive); in the assay on LOX IMVI, 3.54 µM (inactive); with HCT-15, 2.07 µM. For the same compound, the GI50 with SK-MEL-28 is 5.92 µM (inactive); with Malme-3M, 4.92 µM (inactive); with OVCAR-8 it was 2.62 µM (inactive).
As to `O=C1CC[C@H](NC(=O)Cc2ccccc2)C(=O)N1` [ANTINEOPLASTON A10], the GI50 in the assay with EKVX, in the assay on NCI-H522, in the assay on NCI-H23, in the assay with RPMI-8226, in the assay on SR and in the assay on 786-0 was > 1250 µM (inactive) throughout. Moreover, the GI50 is > 1250 µM (inactive) with SNB-19; > 1250 µM (inactive) with NCI-H460; > 1250 µM (inactive) in the assay with MOLT-4; > 1250 µM (inactive) with LOX IMVI; > 1250 µM (inactive) in the assay with HL-60; over 1250 µM in the assay with HCT-15. For the same compound, the GI50 in the assay on SK-MEL-28, with Malme-3M and with OVCAR-8 was > 1250 µM (inactive) throughout.
Regarding `C[N+](C)(C)CC(=O)NC(=O)N/N=C\C(CC#N)CN(Cc1ccccc1)Cc1ccccc1` (stereo unspecified), the GI50 in the assay on EKVX, with NCI-H522, with NCI-H23, in the assay with SR, in the assay on 786-0 and in the assay with SNB-19 was > 100 µM (inactive) in each case. In addition, the GI50 in the assay with NCI-H460 is > 100 µM (inactive); in the assay on MOLT-4 it was > 100 µM (inactive); in the assay with LOX IMVI, > 100 µM (inactive); with HL-60 it was > 100 µM (inactive); with HCT-15 it was over 100 µM; in the assay on SK-MEL-28, > 100 µM (inactive). Further, the GI50 in the assay on Malme-3M is 58.2 µM (inactive); with OVCAR-8 it was > 100 µM (inactive).
As to `CCOC(=O)C12CCCC1(O)N(NC(N)=O)C(C)=C2C(=O)OC` (stereo unspecified), the GI50 in the assay on EKVX, in the assay with NCI-H522, in the assay with NCI-H23, in the assay with RPMI-8226, in the assay on HOP-92 and in the assay with 786-0 was > 100 µM (inactive) each time. Further, the GI50 with SNB-19 is > 100 µM (inactive); in the assay on NCI-H460, > 100 µM (inactive); with MOLT-4, > 100 µM (inactive); in the assay with LOX IMVI, > 100 µM (inactive); in the assay on HL-60 it was > 100 µM (inactive); in the assay with HCT-15, over 100 µM. Further, the GI50 in the assay with SK-MEL-28, in the assay on Malme-3M and in the assay on OVCAR-8 was > 100 µM (inactive) in each case.
Consider `COc1ccc(/C=C2\C(=O)Nc3ccccc32)cc1OC`, for which the GI50 with EKVX was > 100 µM (inactive); in the assay on NCI-H522 it was 79.3 µM (inactive); in the assay on NCI-H23, > 100 µM (inactive); in the assay with RPMI-8226, 23.1 µM (inactive); in the assay with HOP-92 it was 44.6 µM (inactive); in the assay on 786-0, 33.1 µM (inactive). The GI50 with SNB-19 was 38.5 µM (inactive); in the assay with NCI-H460, 78.9 µM (inactive); with MOLT-4, > 100 µM (inactive); in the assay on LOX IMVI, 45.3 µM (inactive); in the assay with HL-60, 46.7 µM (inactive); in the assay with HCT-15, 53 µM. For the same compound, the GI50 in the assay on SK-MEL-28, in the assay with Malme-3M and with OVCAR-8 was > 100 µM (inactive) throughout.
In the case of `CCn1c(C)nc([N+](=O)[O-])c1Sc1ncc[nH]1`, the GI50 in the assay with EKVX is 75.7 µM (inactive); in the assay with NCI-H522 it was 15.6 µM (inactive); in the assay on NCI-H23 it was 29.9 µM (inactive); in the assay with RPMI-8226, 21.1 µM (inactive); with SR, 23.3 µM (inactive); in the assay on HOP-92, 25.8 µM (inactive). Moreover, the GI50 in the assay with 786-0 was > 100 µM (inactive); with SNB-19, > 100 µM (inactive); with NCI-H460, 66.2 µM (inactive); in the assay on MOLT-4, 16.7 µM (inactive); in the assay with LOX IMVI it was 14.7 µM (inactive); in the assay with SK-MEL-28, 31 µM (inactive). Besides, the GI50 with Malme-3M is 20.1 µM (inactive); with OVCAR-8 it was 46.1 µM (inactive).
For the compound `Cc1cc(O)nc(CNC(=O)c2ccc3ccccc3c2)n1`, the GI50 with EKVX, with NCI-H522, in the assay with NCI-H23, in the assay on SR, in the assay with HOP-92 and with 786-0 was > 100 µM (inactive) throughout. The GI50 in the assay on SNB-19 was > 100 µM (inactive); with NCI-H460, > 100 µM (inactive); with MOLT-4, > 100 µM (inactive); with LOX IMVI, > 100 µM (inactive); with HL-60 it was > 100 µM (inactive); in the assay on HCT-15, over 100 µM. Further, the GI50 in the assay on SK-MEL-28, with Malme-3M and with OVCAR-8 was > 100 µM (inactive) in each case.
For the compound `COc1ccc(C(=C(C#N)C#N)c2ccc(OC)cc2)cc1`, the GI50 with EKVX was > 100 µM (inactive); in the assay with NCI-H522, 30 µM (inactive); in the assay with NCI-H23 it was > 100 µM (inactive); in the assay on RPMI-8226, > 100 µM (inactive); in the assay with SR it was 59.4 µM (inactive); with 786-0 it was > 100 µM (inactive). Moreover, the GI50 in the assay on SNB-19 is > 100 µM (inactive); with NCI-H460, > 100 µM (inactive); in the assay with MOLT-4, > 100 µM (inactive); in the assay on LOX IMVI, > 100 µM (inactive); in the assay with HL-60, > 100 µM (inactive); in the assay with HCT-15, over 100 µM. Besides, the GI50 in the assay on SK-MEL-28 and in the assay on OVCAR-8 was > 100 µM (inactive) in each case.
For the compound `Nc1ccc2nc(Nc3ccc(F)cc3)cnc2c1`, the GI50 in the assay on EKVX was > 100 µM (inactive); in the assay with NCI-H522, 44.4 µM (inactive); with RPMI-8226 it was 61.7 µM (inactive); with SR it was 36.1 µM (inactive); in the assay with 786-0, > 100 µM (inactive); with SNB-19 it was > 100 µM (inactive). Further, the GI50 in the assay with NCI-H460 is > 100 µM (inactive); with MOLT-4 it was 27.7 µM (inactive); in the assay with LOX IMVI it was > 100 µM (inactive); in the assay with HL-60 it was 54.7 µM (inactive); in the assay on HCT-15, over 100 µM; with SK-MEL-28, > 100 µM (inactive). Also, the GI50 with Malme-3M and in the assay with OVCAR-8 was > 100 µM (inactive) each time.
As to `C=CCC12CCC(=O)[C@@]1(C)CC=C(O)C2=O` (stereo partly specified), the GI50 in the assay on EKVX, in the assay on NCI-H522, with RPMI-8226, in the assay with SR, in the assay on HOP-92 and in the assay on 786-0 was > 100 µM (inactive) throughout. In addition, the GI50 with SNB-19 was > 100 µM (inactive); in the assay on NCI-H460 it was > 100 µM (inactive); in the assay with MOLT-4 it was > 100 µM (inactive); in the assay on LOX IMVI, > 100 µM (inactive); in the assay with HL-60, > 100 µM (inactive); in the assay on HCT-15, over 100 µM. Moreover, the GI50 in the assay with SK-MEL-28, in the assay on Malme-3M and in the assay on OVCAR-8 was > 100 µM (inactive) each time.
For `CCOC(=O)NC/C=C/COC1CCCCO1` (stereo unspecified), the GI50 with NCI-H522, with RPMI-8226, with SR, with 786-0, in the assay on SNB-19 and in the assay on NCI-H460 was > 100 µM (inactive) in each case. Further, the GI50 in the assay with MOLT-4 was > 100 µM (inactive); in the assay on HL-60 it was > 100 µM (inactive); with HCT-15, over 100 µM; in the assay on SK-MEL-28, > 100 µM (inactive); with Malme-3M, > 100 µM (inactive); with OVCAR-8, > 100 µM (inactive).
As to `COc1ccc2c(c1)O[C@@H]1c3ccc(OC)cc3OC[C@H]21`, the GI50 in the assay on NCI-H522 was 15.3 µM (inactive); with NCI-H23 it was 23.2 µM (inactive); in the assay with RPMI-8226, 26.9 µM (inactive); in the assay with SR, 22.9 µM (inactive); with HOP-92 it was 17.1 µM (inactive); with 786-0 it was 25.4 µM (inactive). The GI50 in the assay on SNB-19 is 54.3 µM (inactive); with NCI-H460, 26.2 µM (inactive); with MOLT-4, 16.6 µM (inactive); in the assay on LOX IMVI it was 17.9 µM (inactive); in the assay on HL-60, 19.3 µM (inactive); with HCT-15, 25.8 µM. Also, the results for the GI50 with SK-MEL-28, in the assay with Malme-3M and with OVCAR-8 were 40.5 µM (inactive), 39.2 µM (inactive) and 42.1 µM (inactive), respectively.
